Measurements as given in patent publication US20240317833A1, “NON-HLA RESTRICTED T CELL VACCINE FOR TCR GAMMA ALTERNATE READING FRAME PROTEIN (TARP) PROTEIN EXPRESSING CANCERS” (PDS BIOTECHNOLOGY CORPORATION, priority 2022, published 2024).
No end group written: not given here.

Test system: TARP antigen-specific T cells
Experiment: IFN-γ ELISPOT on splenocytes of vaccinated HLA-A2 transgenic (AAD) mice, s.c. day 0 and day 7
Type: in vivo, HLA-A2 expressing transgenic mice (AAD mice)
Details: for TARP 21-40 ELISPOT responses: FIG. 8; for response when used as a stimulatory peptide for the ELISPOT: HLA-A2 transgenic mouse model; for TARP 29-37 (9V) ELISPOT responses: encapsulated in R-DOTAP nanoparticles, stimulatory peptide TARP 29-37 (9V) in water/sucrose
[1] = FIG. 5, formulated in CFA, stimulatory peptide TARP 27-35 (SEQ ID NO:2), antigen dose 100 micrograms
[2] = FIG. 6, formulated with R-DOTAP nanoparticles, stimulatory peptide SEQ ID NO:3 (9V), antigen dose 100 micrograms
[3] = FIG. 7, formulated with R-DOTAP nanoparticles, stimulatory peptide TARP 21-40 (SEQ ID NO:6), antigen dose 100 micrograms
[4] = formulated with R-DOTAP nanoparticles, two immunizations, stimulatory peptide TARP 21-40 (17V) in water/sucrose

Question: Which results are given for “KSS-RRLEHTFVFLRNFSLMLLRG (not fully specified; palmitoylated; SITE 1 Palmitoyl modified residue) [SEQ ID NO:13, palmitoylated TARP 6 (21-40)]”?
Answer: antigen-specific ELISPOT responses [1]: no antigen-specific ELISPOT responses; antigen-specific ELISPOT responses (FIG. 6, formulated in CFA, stimulatory peptide SEQ ID NO:3 (9V), antigen dose 100 micrograms): no antigen-specific ELISPOT responses; antigen-specific ELISPOT responses [2]: no antigen-specific ELISPOT responses; antigen-specific ELISPOT responses (FIG. 7, formulated in CFA, stimulatory peptide TARP 21-40 (SEQ ID NO:6), antigen dose 100 micrograms): no or very weak antigen-specific ELISPOT responses; antigen-specific ELISPOT responses [3]: no or very weak antigen-specific ELISPOT responses; TARP 21-40 ELISPOT responses [4]: no or very weak TARP 21-40 ELISPOT responses

Question: For “SSEEEDE-RRLEHTFVFLRNFSLMLLRG (SSEEEDERRLEHTFVFLRNFSLMLLRG; Anionic amino acids) [SEQ ID NO:21]”, which “antigen-specific ELISPOT responses” value [1] is on record?
Answer: Its value is “no antigen-specific ELISPOT responses”.

Question: What about the “antigen-specific ELISPOT responses” value [2] of the same substance?
Answer: The value was “no antigen-specific ELISPOT responses”.

Question: What about the “mice responding to vaccination” value (FIG. 7, R-DOTAP nanoparticles, antigen dose 100 micrograms) of the same substance?
Answer: Its value is “two of six”.

Question: And the “antigen-specific ELISPOT responses” value [3]?
Answer: Its value is “no or very weak antigen-specific ELISPOT responses”.

Question: And the “TARP 21-40 ELISPOT responses” value [4]?
Answer: The value was “no or very weak TARP 21-40 ELISPOT responses”.

Question: Which results are given for “RRLEHTFVFLRNFSLMLLRG (not fully specified) [SEQ ID NO:6]”?
Answer: antigen-specific ELISPOT responses [1]: no antigen-specific ELISPOT responses; antigen-specific ELISPOT responses [2]: no antigen-specific ELISPOT responses; response when used as a stimulatory peptide for the ELISPOT (FIG. 7): inactive or very weakly active; antigen-specific ELISPOT responses [3]: no or very weak antigen-specific ELISPOT responses; TARP 21-40 ELISPOT responses (Complete Freunds Adjuvant (CFA), stimulated with TARP 21-40 (SEQ ID NO:6)): very weakly active; TARP 21-40 ELISPOT responses [4]: no or very weak TARP 21-40 ELISPOT responses; TARP 29-37 (9V) ELISPOT responses (FIG. 9, two immunizations): did not appear to elicit any TARP 29-37 (9V) ELISPOT responses

Question: For “KSS-FLRNFSLMV (not fully specified; palmitoylated; SITE 1 Palmitoyl modified residue) [SEQ ID NO:10, palmitoylated TARP 2 (29-37)]”, which “antigen-specific ELISPOT responses” value [1] is on record?
Answer: Its value is “no antigen-specific ELISPOT responses”.

Question: For “FVFLRNFSL (not fully specified) [SEQ ID NO:2]”, which “response when used as a stimulatory peptide for the ELISPOT” value (FIG. 5) is on record?
Answer: Its value is “apparently inactive”.

Question: Which “response when used as a stimulatory peptide for the ELISPOT” value (FIG. 6) does the source give for “FLRNFSLMV (not fully specified) [SEQ ID NO:3]” here?
Answer: The value was “apparently inactive”.

Question: And the “antigen-specific ELISPOT responses” value [2]?
Answer: The value was “no antigen-specific ELISPOT responses”.

Question: And the “antigen-specific ELISPOT responses” value [3]?
Answer: The value was “no or very weak antigen-specific ELISPOT responses”.

Question: What about the “TARP 21-40 ELISPOT responses” value [4] of the same substance?
Answer: Its value is “no or very weak TARP 21-40 ELISPOT responses”.

Question: What about the “ELISPOT responses to TARP 29-37 (9V)” value (FIG. 9, Complete Freund's Adjuvant (CFA), stimulatory peptide TARP 29-37 (9V)) of the same substance?
Answer: The value was “Very weak or no ELISPOT responses”.

Question: What about the “TARP 29-37 (9V) ELISPOT responses” value (FIG. 9, two immunizations) of the same substance?
Answer: Its value is “did not appear to elicit any TARP 29-37 (9V) ELISPOT responses”.
